Data: patent publication EP1733758A1, “Methods for administration of a farnesyl dibenzodiazepinone” (Ecopia Biosciences Inc., priority 2005, dated 2006)

Assays:
[1] = system: rat glioma (C6) tumor xenograft; assay: Rat C6 glioblastoma subcutaneous tumor xenograft antitumor efficacy study; assay type: in vivo, female athymic (nu/nu) nude mice; details: for %TGI: analyzed at Day 18, P < 0.0001
Method: The rat C6 glioblastoma antitumor efficacy study was performed at INSERM U318 (Grenoble, France). The rat C6 glioblastoma subcutaneous tumor model is based on the use of a rat C6 cell line obtained from a rat glial tumor induced by N-nitrosomethylurea (Benda et al. (1968), Science, vol 161, 370-371). These animal studies were done according to ethical guidelines of animal experimentation (Charte du comité d'éthique du CNRS, 2003) and the English "Guidelines for the welfare of animals in experimental neoplasia (Second Edition)" from the United Kingdom Coordinating Committee on Cancer Research (UKCCCR) (Workman et al. (1998), Br. J. Cancer, vol 77, no 1, 1-10). On each dosing day, Formula I stock solutions (24 and 40 mg/mL in 20% ethanol, 20% PEG-400 and 60% Tween 80) were diluted with sterile 5% dextrose in water (D5W) to prepare dosing solutions of 6 mg/mL and 10 mg/mL of Formula I in a vehicle consisting of 5% ethanol, 5% PEG-400, 15% Tween-80, and 75% D5W.
For the rat glioma antitumor efficacy study, female athymic (nu/nu) nude mice (6-7 weeks of age) were inoculated SC with 5 x 10^6 C6 cells (day 0). Tumor bearing animals were randomized (10 per group) when tumors were palpable (day 6). Group 1 (control group) received drug-free vehicle (5% ethanol, 5% PEG-400, 15% Tween-80, and 75% D5W) IP (5 mL/kg), once daily on days 6-18 (q1d x 13). Group 2 received Formula I (6 mg/mL) IP at 20 mg/kg, once daily on days 6 to 13 and then at 10 mg/kg once daily on days 14 to 18. Group 3 received Formula I (6 mg/mL) SC at 30 mg/kg, once daily on days 6 to 13 and then at 15 mg/kg once daily on days 14 to 18. Group 4 received Formula I (10 mg/mL) IV at 100 mg/kg q1d x 5 for 2 weeks. Each animal was euthanized when its tumor reached the predetermined endpoint size (∼2,500 mm^3) or at the end of the study (D18). Treatment period was over 13 days, from day 6 to day 18, post tumor cell inoculation. Tumor growth inhibition (TGI) was calculated on day 16 post tumor cell inoculation, at which time some animals from the vehicle control group had to be sacrificed due to tumor burden.
(§1) In this model and the models of Examples 3, 6 and 7, tumor growth was followed every other day by measuring tumor length (L) and width (W) using a calliper. Measurements were converted to tumor volumes (TV; mm^3) using the standard formula, TV = (L xW^2)/2. Tumor volume at day n was expressed as relative tumor volume (RTV) according to the following formula RTV = TVn / TV0, where TVn is the tumor volume at day n and TV0 is the tumor volume at day 0. The percentage of tumor growth inhibition (%TGI) was determined by 1 ― (mean RTV of treated group/ mean RTV of control group) x 100. […] Statistical analysis was calculated by the two-tailed unpaired t test using the Prism software. Animals were weighed at least twice weekly during and after treatment until completion of the study. The mice were examined frequently for overt signs of any adverse drug-related side effects.
When the time to endpoint (TTE) for each mouse was also calculated by the following equation: TTE = (log10(endpoint volume)−b)/(m) [formula] Where TTE is expressed in days, endpoint volume is in mm^3, b is the intercept, and m is the slope of the line obtained by linear regression of a log-transformed tumor data set. This value was used to determined % tumor growth delay (%TGD), defined as the increase in median TTE for a treatment group compared to the control group expressed in days, or as a percentage of the median TTE of the control group.

[2] = system: human glioma (U-87MG) tumor xenograft; assay: Human U-87MG glioblastoma xenograft antitumor efficacy study; assay type: in vivo, female athymic (nu/nu) nude mice; details: SC bolus 30 mg/kg q1d x 5 over 2 weeks
Source text: as §1
The human U-87 MG (ATCC® no. HTB-14™) glioblastoma antitumor efficacy study was performed at INSERM U318 (Grenoble, France). […]
For the human glioblastoma antitumor efficacy study, female athymic (nu/nu) nude mice (6-7 weeks of age) were inoculated SC with 5 x 10^6 U-87MG cells (day 0). […] Tumor growth inhibition (TGI) was calculated on day 34 post tumor cell inoculation, at which time some animals from the vehicle control group had to be sacrificed due to tumor burden.

Structure (SMILES): CC(C)=CCC/C(C)=C/CC/C(C)=C/CN1C(=O)c2cccc(O)c2Nc2c(O)cc(O)cc21 [Formula I, 10-farnesyl-4,6,8-trihydroxy-dibenzodiazepin-11-one]
- Maximum body weight loss ([1]; IP 20 mg/kg (Q1D x 8) followed by 10 mg/kg (Q1D x 7), Day 13): 15%
- difference in tumor volume relative to the vehicle control ([1]; IV bolus 100 mg/kg (Q1D x 5) over 2 weeks): No significant difference
- body weight loss ([1]; IV group, 100 mg/kg q1d x 5 for 2 weeks): No significant body weight loss
- Maximum body weight loss ([1]; SC 30 mg/kg (Q1D x 8) followed by 15 mg/kg (Q1D x 7)): 11%
- %TGI ([1]; daily bolus IP 20 then 10 mg/kg): 66%
- %TGI ([1]; daily bolus SC 30 then 15 mg/kg): 60%
- body weight loss [2]: no significant body weight loss
- %TGI ([2]; day 34, P = 0.05): 36%
